Structures can show the parent of a compound that is named as a salt. Where two headings read alike, the source gives them in different places.
Assays:
[1] = target: T1, CYP2D6 (Homo sapiens, UniProt P10635); test: biochemical
[2] = target: T1, CYP2D6; test: Microsomal inhibition study, inhibition of bufuralol metabolism (Example 1); conditions: read-out: 2D6 Affinity (IC50), Table 2
From the text: The degree of a given molecule's metabolism by and affinity for CYP2D6 and other CYP isoforms may be assessed by any techniques known in the art, including through the use of Bactosomes™ or by microsomal inhibition studies. In vitro metabolism studies using Bactosomes™ expressing individual human CYP isoforms monitor the extent to which a test compound is metabolized by a single CYP450 enzyme and allow identification of the CYP isoforms that may be responsible for the metabolism of a test compound. […] These techniques can be used to assess the metabolism and affinity of not only the unconjugated version of a CYP2D6 bioactive drug but conjugated versions as well.

[3] = target: T2, CYP3A4 (Homo sapiens, UniProt P08684); test: Microsomal inhibition study, inhibition of midazolam metabolism (Example 1); conditions: read-out: 3A4 Affinity (IC50), Table 2
[4] = target: T1, CYP2D6
[5] = target: T2, CYP3A4
[6] = target: T2, CYP3A4; conditions: microsomes
[7] = read-out: CYP2D6 Inhibition of dextromethorphan O-demethylation IC50, human liver microsomes 0.1 mg/mL, test compound 0.1-25 μM, 5 minutes
[8] = read-out: CYP3A4 Inhibition of testosterone 6β-hydroxylation IC50, human liver microsomes 0.1 mg/mL, test compound 0.1-25 μM, 5 minutes

T2 sequence (P08684 whole entry): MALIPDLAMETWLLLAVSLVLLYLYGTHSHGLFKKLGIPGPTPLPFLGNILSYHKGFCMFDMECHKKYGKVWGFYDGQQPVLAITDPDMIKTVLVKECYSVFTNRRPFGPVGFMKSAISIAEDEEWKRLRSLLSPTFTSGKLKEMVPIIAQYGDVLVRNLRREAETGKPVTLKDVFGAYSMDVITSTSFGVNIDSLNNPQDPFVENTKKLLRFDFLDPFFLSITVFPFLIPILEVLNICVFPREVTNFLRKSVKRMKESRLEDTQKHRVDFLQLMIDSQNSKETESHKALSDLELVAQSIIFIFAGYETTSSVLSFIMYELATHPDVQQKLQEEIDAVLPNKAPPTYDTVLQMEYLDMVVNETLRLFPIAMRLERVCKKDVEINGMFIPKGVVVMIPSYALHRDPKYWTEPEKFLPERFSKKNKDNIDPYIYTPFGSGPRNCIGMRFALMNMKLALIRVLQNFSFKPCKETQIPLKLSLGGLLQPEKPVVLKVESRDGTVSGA
T1 sequence (P10635 whole entry): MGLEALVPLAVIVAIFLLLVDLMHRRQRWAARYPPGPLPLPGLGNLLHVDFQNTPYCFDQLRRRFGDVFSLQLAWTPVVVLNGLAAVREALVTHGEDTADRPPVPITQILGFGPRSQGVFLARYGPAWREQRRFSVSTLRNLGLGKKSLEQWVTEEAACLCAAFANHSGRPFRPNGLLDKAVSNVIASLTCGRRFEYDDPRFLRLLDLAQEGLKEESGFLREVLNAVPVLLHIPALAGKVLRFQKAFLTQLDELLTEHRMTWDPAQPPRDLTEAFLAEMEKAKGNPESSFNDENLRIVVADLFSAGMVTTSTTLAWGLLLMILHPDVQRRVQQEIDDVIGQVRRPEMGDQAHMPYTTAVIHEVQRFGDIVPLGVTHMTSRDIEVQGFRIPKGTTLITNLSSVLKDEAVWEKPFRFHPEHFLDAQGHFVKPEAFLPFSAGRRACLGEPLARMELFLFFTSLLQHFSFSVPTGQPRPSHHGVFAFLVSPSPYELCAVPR

SMILES | IC50 [1] [µM] | IC50 [2] [µM] | IC50 [3] [µM] | IC50 [4, 7] [µM] | IC50 [5, 8] [µM] | IC50 [6] [µM] | IC50 ([5]; microsomes) [µM] | IC50 ([4]; microsomes) [µM]
N=C(N)N1CCc2ccccc2C1 [Debrisoquine sulfate] | 19.5 |  |  |  |  |  |  | 
COCCOCCOCCOCCOCCN1CCN(C(c2ccccc2)c2ccc(Cl)cc2)CC1 (stereo not drawn) [PEG-3-HZ, mPEG3-hydroxyzine] |  | 10.3 | 17.8 | 9.7 |  |  |  | 
COCCOCCOCCOCCOCCOCCOCCN1CCN(C(c2ccccc2)c2ccc(Cl)cc2)CC1 (stereo not drawn) [PEG-5-HZ, mPEG5-hydroxyzine] |  | 11.7 | 15.4 | 11.5 | > 25 | 7.9 |  | 
CC(C)NCC(O)COc1cccc2ccccc12 (stereo not drawn) [Propranolol hydrochloride, reference compound] |  |  |  |  |  | > 25 | 13.1 | 7.5
COCCOCCOCCN(C)CCOC(c1ccccc1)c1ccccc1 [mPEG3-N-diphenhydramine] |  |  |  |  | > 25 | 16.4 |  | 2.6
COCCOCCOCCNCCCN1c2ccccc2CCc2ccccc21 [mPEG3-NH-desipramine] |  |  |  | 1.47 | > 25 | 17.9 |  | 
COCCOCCOCCOCCN(C)CCOC(c1ccccc1)c1ccccc1 [mPEG4-N-diphenhydramine] |  |  |  |  | > 25 | 13.1 |  | 9.2
COCCOCCOCCOCCOCCOCCOCCNCCCN1c2ccccc2CCc2ccccc21 [mPEG7-NH-desipramine] |  |  |  | > 25 | > 25 | 9.51 |  | 

Reference: patent publication US11033631B2, “Methods of treating CYP2D6 alternative metabolizers” (Nektar Therapeutics, priority 2008, dated 2021)
